Data set [1] deals with T1, FAAH (Mus musculus, UniProt O08914).
T1 sequence (O08914 1-579): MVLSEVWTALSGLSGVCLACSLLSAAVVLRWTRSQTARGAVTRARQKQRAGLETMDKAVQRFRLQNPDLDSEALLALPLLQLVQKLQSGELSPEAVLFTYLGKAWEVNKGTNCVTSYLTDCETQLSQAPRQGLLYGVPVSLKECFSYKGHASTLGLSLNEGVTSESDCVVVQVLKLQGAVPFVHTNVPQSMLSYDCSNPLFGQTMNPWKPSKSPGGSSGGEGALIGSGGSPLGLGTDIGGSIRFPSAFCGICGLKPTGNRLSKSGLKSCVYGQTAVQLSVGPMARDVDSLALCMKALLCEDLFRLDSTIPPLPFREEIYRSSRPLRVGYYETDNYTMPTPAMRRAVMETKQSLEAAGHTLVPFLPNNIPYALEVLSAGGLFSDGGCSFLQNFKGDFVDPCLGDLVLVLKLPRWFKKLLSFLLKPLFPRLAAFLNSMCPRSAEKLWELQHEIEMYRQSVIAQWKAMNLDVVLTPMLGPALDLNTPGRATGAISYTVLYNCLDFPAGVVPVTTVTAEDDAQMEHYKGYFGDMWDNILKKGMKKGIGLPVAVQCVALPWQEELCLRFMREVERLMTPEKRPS
As to the kind of experiment: In vivo FAAH inhibition, liver, after oral administration to mice.

In another data set the test system is carboxylesterases (CEs). Put plainly: CE activity in rat liver microsomes. It is filed as biochemical. To be noted: for CEs (10 μM), percent of control: 10 μM in rat liver microsomes; for CEs activity, percent of control: C inhib=10 μM in rat liver microsomes, Table 2. (Liver microsomes are vesicles of endoplasmic reticulum, rich in cytochrome P450 enzymes.)
The test system of data set [2] is FAAH. Conditions: read-out: FAAH IC50 (in vitro potency); cited from earlier work.
Data set [3] addresses T1, FAAH. As to the kind of experiment: In vivo FAAH inhibition, brain, after oral administration to mice.
Another data set has as its target T2, MAGL (Rattus norvegicus, UniProt Q8R431).
T2 sequence (Q8R431 1-303): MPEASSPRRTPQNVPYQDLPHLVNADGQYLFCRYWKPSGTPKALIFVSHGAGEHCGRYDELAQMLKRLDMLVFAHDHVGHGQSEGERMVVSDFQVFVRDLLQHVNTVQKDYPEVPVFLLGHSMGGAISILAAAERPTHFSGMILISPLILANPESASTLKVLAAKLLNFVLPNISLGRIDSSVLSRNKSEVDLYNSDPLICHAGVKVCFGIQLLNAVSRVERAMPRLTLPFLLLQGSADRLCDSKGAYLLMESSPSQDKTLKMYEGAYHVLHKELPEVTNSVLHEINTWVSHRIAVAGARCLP
Put plainly: MAGL activity in rat cerebellum cytosol. It is filed as biochemical. To be noted: C inhib=100 μM in rat cerebellum cytosol; for MAGL activity, percent of control: Table 2.

For data set [4] the following is noted: multiple ascending doses up to 20 mg; cited from earlier work.
Data set [5] can be described thus: CYP450 metabolic stability, primate liver microsomes. Conditions: 5 μM in liver microsomes, 1 h incubation. Type of data set: in vitro ADME.
Data set [6] in a line: CYP450 metabolic stability, rat liver microsomes. It is filed as in vitro ADME. To be noted: 5 μM in liver microsomes, 1 h incubation.
In data set [7] the target is T3, FAAH (Rattus norvegicus, UniProt P97612).
T3 sequence (P97612 1-579): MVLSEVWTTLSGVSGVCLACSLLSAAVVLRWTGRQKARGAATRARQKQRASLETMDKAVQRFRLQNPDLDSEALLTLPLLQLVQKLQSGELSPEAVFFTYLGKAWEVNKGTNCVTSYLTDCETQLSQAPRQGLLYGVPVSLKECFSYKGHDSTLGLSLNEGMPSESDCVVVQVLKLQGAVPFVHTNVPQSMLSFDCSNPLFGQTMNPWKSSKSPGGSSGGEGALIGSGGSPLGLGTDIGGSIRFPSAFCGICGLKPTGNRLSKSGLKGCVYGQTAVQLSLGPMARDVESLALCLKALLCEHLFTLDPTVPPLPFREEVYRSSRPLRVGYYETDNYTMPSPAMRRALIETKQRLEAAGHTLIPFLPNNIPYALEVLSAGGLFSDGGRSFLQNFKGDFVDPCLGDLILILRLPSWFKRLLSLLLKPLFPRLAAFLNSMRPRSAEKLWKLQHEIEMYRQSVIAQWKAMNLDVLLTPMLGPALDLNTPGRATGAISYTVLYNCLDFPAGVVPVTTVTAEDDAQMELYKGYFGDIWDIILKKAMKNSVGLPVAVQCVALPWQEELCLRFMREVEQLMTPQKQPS
As to the kind of experiment: In vitro FAAH activity in rat brain homogenates/membranes. Type of data set: biochemical.

Data set [8] is described as follows: CYP450 metabolic stability, dog liver microsomes. It is filed as in vitro ADME. To be noted: 5 μM in liver microsomes, 1 h incubation.
A short description of data set [9]: CYP450 metabolic stability, human liver microsomes. It is filed as in vitro ADME. To be noted: 5 μM in liver microsomes, 1 h incubation.
Data set [10] in a line: CYP450 metabolic stability, mouse liver microsomes. It is filed as in vitro ADME. Conditions: 1 h incubation; for CYP450 metabolic stability, Mouse, percent of remaining: 5 μM in liver microsomes.
Setting [11] is: 0.1 mg kg^−1 p.o. in mice, 8 h after administration, Table 4.
The mark [12] stands for this setting: 30 mg kg^−1 p.o. in mice, 1 h after administration, Table 2.
[13] abbreviates: 0.1 mg kg^−1, mouse, p.o., text b31.
Setting [14] is: 0.1 mg kg^−1 p.o. in mice, 8 h after administration, Table 5.
Where [15] appears, read: 0.1 mg kg^−1 p.o., mice, post-dose.

pIC50: −log10 of the molar value. Where two headings read alike, the source gives them in different places. Bounds are passed on as bounds.

One may read the inhibition as the share of the control response that was lost under treatment. For orientation: pIC50 means −log10 of the IC50, conventionally taken in molar units. A word on the ED50: it is the dose that gives a 50% effect, or the effect in half of the subjects.

Turning to `NC(=O)c1cccc(-c2cccc(OC(=O)NC3CCCCC3)c2)c1` [Compound 2, URB597, reference compound], the “Liver FAAH activity, percent of control” value at FAAH [1] (setting [11]) is listed as 74±20% of control; at FAAH [1] (setting [12]), 6±1% of control. Besides, on FAAH [1] (mouse, po, read-out: FAAH inhibition in the liver), the inhibition at 30 mg/kg is above 90%. Moreover, the “CEs (10 μM), percent of control” value with carboxylesterases (CEs) (Table 4) is 72±5% of control. Further, the “CEs activity, percent of control” value in the data set with carboxylesterases (CEs) was 72±5% of control. Moreover, in the data set with FAAH [2], the pIC50 was […]. For the same compound, the “Brain FAAH activity, percent of control” value was 91±7% of control at FAAH [3] (setting [11]) and 9±2% of control at FAAH [3] (setting [12]). Besides, at FAAH [3] (30 mg kg^−1 p.o., mice, 1 h post-administration), the “FAAH inhibition in the brain” value was “over 90%”. Moreover, the “MAGL activity, percent of control” value on MAGL is 87±4% of control. At MAGL (Table 4), the “MAGL (100 μM), percent of control” value is 87±4% of control.

For the compound `CN(C(=O)n1cnc(-c2ccc[n+]([O-])c2)c1)C1CCCCC1` [Compound 8 l, 3‐(1‐(Cyclohexyl(methyl)carbamoyl)‐1H‐imidazol‐4‐yl)pyridine 1‐oxide], at FAAH [1] (setting [13]), the “in vivo FAAH inhibitory activity, liver” value is listed as > 90 % of control. The “Liver FAAH activity, percent of control” value at FAAH [1] (setting [14]) is recorded as 6±2% of control. Moreover, the “time of maximum inhibitory effect in the liver” value on FAAH [1] (setting [15]) is given as 1 h. The ED50 on FAAH [1] (mouse, po, 8 h, read-out: ED50 liver FAAH) is 7 µg/kg. The inhibition at 0.1 mg/kg on FAAH [1] (mouse, po, read-out: peripheral inhibition of FAAH sustained over the next 7 h) is above 90%. For the same compound, the “CEs (10 μM), percent of control” value with carboxylesterases (CEs) (Table 5) is recorded as 102±5% of control. Further, the “in vivo FAAH inhibitory activity, brain” value at FAAH [3] (setting [13]) was > 90 % of control. Moreover, the “Brain FAAH activity, percent of control” value on FAAH [3] (setting [14]) is recorded as 8±2% of control. Besides, at FAAH [3] (0.1 mg kg^−1 p.o., mice, at 8 h post-dose), the “maximal inhibitory effect in the brain” value was above 90%. The “time of maximal inhibitory effect in the brain (t max)” value on FAAH [3] (setting [15]) is recorded as 8 h. For the same compound, the “central FAAH inhibition maintained up to 48 h post-administration” value on FAAH [3] (0.1 mg kg^−1 p.o., mice, up to 48 h) is above 50%. In addition, the “ED50 cerebral FAAH” value at FAAH [3] (mice, p.o., 0.001 to 3 mg kg^−1, 8 h post-administration) was around 27 µg/kg. For the same compound, in data set [4], the “systemic exposure to anandamide” value is “increased in a dose‐dependent manner”. Further, the “CYP450 metabolic stability, Primate, percent of remaining” value in [5] was 88±1% of remaining. For the same compound, the “CYP450 metabolic stability, Rat, percent of remaining” value in data set [6] was 91±1% of remaining. In addition, on FAAH [7] (rat brain homogenates, 15 min pre-incubation, Table 5), the “FAAH activity, percent of control, 100 nM” value is 85±11% of control. Moreover, the “MAGL (100 μM), percent of control” value on MAGL (Table 5) is on record as 96±4% of control. In addition, the “CYP450 metabolic stability, Dog, percent of remaining” value in [8] is recorded as 94±2% of remaining. In addition, the “CYP450 metabolic stability, Human, percent of remaining” value in data set [9] was 95±1% of remaining. In addition, in data set [10], the “CYP450 metabolic stability, Mouse, percent of remaining” value is reported as 99±2% of remaining.

Turning to `CC1(C)COCN1C(=O)n1nnc2ccccc21` [Compound 11 a], the “Liver FAAH activity, percent of control” value at FAAH [1] (setting [11]) is on record as 10±4% of control; at FAAH [1] (setting [12]) it was 2±1% of control. Further, the ED50 at FAAH [1] (mouse, po, 1 h, read-out: ED50 liver (peripheral) FAAH) was found to be 7 µg/kg. Also, the “CEs (10 μM), percent of control” value in the data set with carboxylesterases (CEs) (Table 4) is reported as 81±6% of control. The “CEs activity, percent of control” value with carboxylesterases (CEs) is given as 81±6% of control. For the same compound, the “Brain FAAH activity, percent of control” value is given as 24±7% of control at FAAH [3] (setting [11]) and 0±0% of control at FAAH [3] (setting [12]). The “ED50 brain (cerebral) FAAH” value at FAAH [3] (mouse, p.o., 0.001–3.0 mg kg^−1, 1 h post-dose) was found to be 61 µg/kg. Moreover, the “CYP450 metabolic stability, Primate, percent of remaining” value in data set [5] is listed as 0±0% of remaining. Besides, in data set [6], the “CYP450 metabolic stability, Rat, percent of remaining” value is given as 26±0% of remaining. In addition, the pIC50 against FAAH [7] was 7.72. The “FAAH activity, percent of control, 10 nM” value on FAAH [7] (10 nM, rat brain homogenates, 15 min pre-incubation, Table 2) is 78±25% of control. Besides, the “FAAH activity, percent of control, 100 nM” value on FAAH [7] (rat brain homogenates, 15 min pre-incubation, Table 2) is listed as 2±1% of control. For the same compound, on MAGL, the “MAGL activity, percent of control” value is given as 90±5% of control. Moreover, on MAGL (Table 4), the “MAGL (100 μM), percent of control” value is given as 90±5% of control. In addition, the “CYP450 metabolic stability, Dog, percent of remaining” value in [8] is reported as 1±0% of remaining. The “CYP450 metabolic stability, Human, percent of remaining” value in [9] is on record as 52±9% of remaining. Moreover, the “CYP450 metabolic stability, Mouse, percent of remaining” value in data set [10] is 5±0% of remaining. In addition, the “CYPs (50 μM), percentage remaining” value in data set [10] (C inhib=50 μM in mouse liver microsomes) is listed as 25±2 percentage remaining.

(Values after PMC6582431 (Chemmedchem, 2018).)
